Structures are written as SMILES.

This is an account of results in patent US9382226B2, “Aldosterone synthase inhibitors” (Merck Sharp & Dohme Corp., priority 2010, dated 2016).

Assay [1] has as its target T1, human CYP11B2 (Homo sapiens, UniProt P19099).
T1 construct: expressed in transfected cells; host or cells: V79 cells (clone V79-hCYP11B2-CLE9)
T1 sequence (P19099 25-503): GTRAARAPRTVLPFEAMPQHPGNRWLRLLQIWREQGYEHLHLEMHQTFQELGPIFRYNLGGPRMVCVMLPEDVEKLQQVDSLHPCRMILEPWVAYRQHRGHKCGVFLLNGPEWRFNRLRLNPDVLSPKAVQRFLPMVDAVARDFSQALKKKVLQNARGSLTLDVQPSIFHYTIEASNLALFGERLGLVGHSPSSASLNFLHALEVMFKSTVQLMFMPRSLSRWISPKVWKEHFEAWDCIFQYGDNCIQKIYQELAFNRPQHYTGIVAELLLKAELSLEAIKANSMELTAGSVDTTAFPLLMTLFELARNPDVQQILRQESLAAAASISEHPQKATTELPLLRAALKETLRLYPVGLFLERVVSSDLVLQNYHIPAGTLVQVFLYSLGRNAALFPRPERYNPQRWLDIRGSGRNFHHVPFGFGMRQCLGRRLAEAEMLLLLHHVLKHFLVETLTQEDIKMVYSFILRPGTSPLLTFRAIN
The experiment in a line: V79-Human-CYP11B2 cell assay (aldosterone formation, HTRF). The format is cell-based. Conditions: V79 cells stably expressing human CYP11B2; substrate 125 nM 11-deoxycorticosterone; 3 hours. As for the experimental part: (§1) Methods for V79-Human-CYP11B2 and V79-Human-CYP11B1 Assays: V79 cell lines stably expressing the either the human CYP11B2 or the human CYP11B1 enzyme were generated using a standard transfection protocol. V79 cells were transfected with plasmids pTriEx3-Hygro-hCyp11B2 or pTriEx3-Hygro-hCyp11B1 using Lipofectamine2000 reagent. V79 cells that stably express the human CYP11B2 or human CYP11B1 enzyme were selected for and maintained in DMEM supplemented with 10% FBS and 400 μg/mL hygromycin for ˜2 weeks. Single cell clones were generated by […] in DMEM supplemented with 10% FBS and 400 μg/mL hygromycin until single colonies were obtained. Clones V79-hCYP11B2-CLE9 and V79-hCYP11B1-8C7, were determined to produce the most aldosterone and cortisol, respectively, and were selected for inhibitor screening. For testing of inhibitors, cells were harvested at 80% confluency with 0.5% Trypsan-EDTA, washed once in PBS, and reconstituted in DMEM 0.1% BSA media at a cell concentration of 400,000 cells/mL. 25 μl of cells were added to a 384 well tissue culture treated plate and mixed with 0.25 μl of inhibitor or DMSO (1% final DMSO concentration) for 1 hour at 37° C., 5% CO2. After pre-incubation with inhibitor, the reaction was initiated by adding 5 μl of substrate (final concentration of 125 nM 11-deoxycorticosterone for the CYP11B2 assay or 250 nM 11-deoxycortisol for the CYP11B1 assay). The reaction was carried out for 3 hours at 37° C., 5% CO2 and was stopped by harvesting the supernatants. The amount of product in the supernatant (aldosterone for CYP11B2 assay and cortisol for the CYP11B1 assay) was measured using HTRF-based assay kit (Aldosterone HTRF-CisBio#64ALDPEB, Cortisol HTRF-CisBio #63IDC002-CORT). IC50's for the inhibitor were determined by plotting the amount of product formed against the concentration of inhibitor using sigmoidal dose-response curve (variable slope) fit in GraphPad.

Assay [2] addresses T2, human CYP11B1 (Homo sapiens, UniProt P15538).
T2 construct: expressed in transfected cells; host or cells: V79 cells (clone V79-hCYP11B1-8C7)
T2 sequence (P15538 25-503): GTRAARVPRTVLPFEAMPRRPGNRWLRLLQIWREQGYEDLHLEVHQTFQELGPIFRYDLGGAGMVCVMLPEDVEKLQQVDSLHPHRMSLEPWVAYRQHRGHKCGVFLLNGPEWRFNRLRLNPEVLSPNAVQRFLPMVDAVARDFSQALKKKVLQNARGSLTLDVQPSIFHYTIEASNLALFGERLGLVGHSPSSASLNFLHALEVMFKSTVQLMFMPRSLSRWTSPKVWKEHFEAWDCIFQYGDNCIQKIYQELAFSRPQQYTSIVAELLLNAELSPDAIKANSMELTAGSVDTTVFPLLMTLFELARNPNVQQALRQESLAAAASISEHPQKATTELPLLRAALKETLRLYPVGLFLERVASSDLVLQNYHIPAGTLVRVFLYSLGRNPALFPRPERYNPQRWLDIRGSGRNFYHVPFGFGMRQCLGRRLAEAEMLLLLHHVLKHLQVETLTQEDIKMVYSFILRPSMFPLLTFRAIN
The experiment in a line: V79-Human-CYP11B1 cell assay (cortisol formation, HTRF). The note with it: V79 cells stably expressing human CYP11B1; substrate 250 nM 11-deoxycortisol; 3 hours. The class given is cell-based. As to the method: as §1, with “Clones V79-hCYP11B2-CLE9 and V79-hCYP11B1-8C7, were determined to produce the most aldosterone and cortisol, respectively, and were selected for inhibitor screening.” left out, “After pre-incubation with inhibitor, the reaction was initiated by adding 5 μl of substrate (final concentration of 125 nM 11-deoxycorticosterone for the CYP11B2 assay or 250 nM 11-deoxycortisol for the CYP11B1 assay).” left out
Background: In TR-FRET formats the signal depends on donor and acceptor labels being close together.

On to `Cn1c(-c2cccnc2)nc2cc(F)ccc21` [Example 4, 5-fluoro-1-methyl-2-(pyridin-3-yl)-1H-benzimidazole], for which the IC50 (usually the concentration needed to halve the response being measured) in assay [1] amounted to 26 nM; in assay [2], 4080 nM.

On to `Fc1ccc2nc(-c3cncc4ccccc34)n(C3CC3)c2c1` [Example 16, 4-(1-cyclopropyl-6-fluoro-1H-benzimidazol-2-yl)isoquinoline], for which the figures for the IC50 in assay [1] and in assay [2] were 0.1 nM and 59.2 nM, respectively.

As to `Fc1ccc2c(c1)nc(-c1cccnc1)n2C1CC1` [Example 17, 1-cyclopropyl-5-fluoro-2-(pyridin-3-yl)-1H-benzimidazole], the figures for the IC50 in assay [1] and in assay [2] were 28 nM and 3980 nM, respectively.

For the compound `CCn1c(-c2cncc3ccccc23)nc2cc(F)ccc21` [Example 26, 4-(1-ethyl-5-fluoro-1H-benzimidazol-2-yl)isoquinoline], the values for the concentration for half-maximal inhibition (IC50) in assay [1] and in assay [2] were 3.8 nM and 304 nM, respectively.

Consider `Fc1cc2nc(-c3cncc4ccccc34)n(C3CC3)c2cc1F` [Example 32, 4-(1-cyclopropyl-5,6-difluoro-1H-benzimidazol-2-yl)isoquinoline], for which the concentration for half-maximal inhibition (IC50) in assay [1] came out at 0.1 nM; in assay [2], 9.6 nM.

Regarding `CC(C)(O)c1cncc(-c2nc3cc(F)c(F)cc3n2C2CC2)c1` [Example 38, 2-[5-(1-Cyclopropyl-5,6-difluoro-1H-benzimidazol-2-yl)pyridin-3-yl]propan-2-ol], the IC50 in assay [1] amounted to 0.3 nM; in assay [2], 42 nM.

Turning to `COC(C)(C)c1cncc(-c2nc3cc(F)c(F)cc3n2C2CC2)c1` [Example 39, 1-cyclopropyl-5,6-difluoro-2-[5-(2-methoxypropan-2-yl)pyridin-3-yl]-1H-benzimidazole], the 50% inhibitory concentration (IC50) came out at 0.3 nM in assay [1] and 3.4 nM in assay [2].

For the compound `COC(C)(C)c1cncc(-c2nc3ccc(F)cc3n2C2CC2)c1` [Example 51, 1-cyclopropyl-6-fluoro-2-[5-(2-methoxypropan-2-yl)pyridin-3-yl]-1H-benzimidazole], the results for the IC50 in assay [1] and in assay [2] were 0.2 nM and 4.7 nM, respectively.

For `N#Cc1ccc2nc(-c3cccnc3)n(C3CC3)c2c1` [Example 75, 1-cyclopropyl-2-(pyridin-3-yl)-1H-benzo[d]imidazole-6-carbonitrile], the IC50 in assay [1] is 1.23 nM; in assay [2] it was 374 nM.

Turning to `COc1cncc(-c2nc3ccc(C#N)cc3n2C2CC2)c1` [Example 76, 1-cyclopropyl-2-(5-methoxypyridin-3-yl)-1H-benzimidazole-6-carbonitrile], the concentration for half-maximal inhibition (IC50) worked out at 0.422 nM in assay [1] and 1750 nM in assay [2].

`Cn1c(-c2cccnc2)nc2ccc(C#N)cc21` [Example 99, 1-methyl-2-(pyridin-3-yl)-1H-benzimidazole-6-carbonitrile]: the values for the IC50 in assay [1] and in assay [2] were 0.316 nM and 98 nM, respectively.

For `Fc1cncc(-c2nc3cc(F)c(Cl)cc3n2C2CC2)c1` [Example 129, 6-chloro-1-cyclopropyl-5-fluoro-2-(5-fluoropyridin-3-yl)-1H-benzimidazole], the half-maximal inhibitory concentration (IC50) in assay [1] came out at 0.81 nM; in assay [2], 161 nM.

As to `Fc1cc2nc(-c3cncc4ccccc34)n(C3CC3)c2cc1Cl` [Example 131, 4-(6-chloro-1-cyclopropyl-5-fluoro-1H-benzimidazol-2-yl)isoquinoline], the half-maximal inhibitory concentration (IC50) in assay [1] worked out at 0.126 nM; in assay [2], 122 nM.

Regarding `Fc1cc2nc(-c3cccnc3)n(C3CC3)c2cc1Cl` [Example 132, 6-chloro-1-cyclopropyl-5-fluoro-2-(pyridin-3-yl)-1H-benzimidazole], the 50% inhibitory concentration (IC50) was 0.597 nM in assay [1] and 10000 nM in assay [2].

`Cc1cncc(-c2nc3cc(F)c(Cl)cc3n2C2CC2)c1` [Example 135, 6-chloro-1-cyclopropyl-5-fluoro-2-(5-methylpyridin-3-yl)-1H-benzimidazole]: the figures for the IC50 in assay [1] and in assay [2] were 0.226 nM and 602 nM, respectively.

With `Fc1cncc(-c2nc3ccc(Br)cc3n2C2CC2)c1` [Example 172, 6-bromo-1-cyclopropyl-2-(5-fluoropyridin-3-yl)-1H-benzimidazole], the figures for the IC50 in assay [1] and in assay [2] were 3.55 nM and 946 nM, respectively.

On to `Cc1cncc(-c2nc3cc(F)c(F)cc3n2C)c1` [Example 212, 5,6-difluoro-1-methyl-2-(5-methylpyridin-3-yl)-1H-benzimidazole], for which the IC50 is 0.585 nM in assay [1] and 149 nM in assay [2].

For `COc1c(C)cncc1-c1nc2cc(F)c(F)cc2n1C1CC1` [Example 226, 1-cyclopropyl-5,6-difluoro-2-(4-methoxy-5-methylpyridin-3-yl)-1H-benzimidazole], the IC50 in assay [1] came to 1.12 nM; in assay [2], 790 nM.

In the case of `COc1cncc(-c2nc3ccc(Cl)cc3n2C)c1` [Example 232, 6-chloro-2-(5-methoxypyridin-3-yl)-1-methyl-1H-benzimidazole], the IC50 in assay [1] amounted to 0.2 nM; in assay [2], 162 nM.

For the compound `Cn1c(-c2cccnc2)nc2ccc(Cl)cc21` [Example 233, 6-chloro-1-methyl-2-(pyridin-3-yl)-1H-benzimidazole], the IC50 in assay [1] turned out to be 1.15 nM; in assay [2], 270 nM.

For `Clc1ccc2nc(-c3cccnc3)n(C3CC3)c2c1` [Example 250, 6-chloro-1-cyclopropyl-2-(pyridin-3-yl)-1H-benzimidazole], the 50% inhibitory concentration (IC50) in assay [1] came to 1.59 nM; in assay [2] it was 425 nM.

As to `Cn1c(-c2cncc3ccccc23)nc2cc(F)cc(F)c21` [Example 256, 4-(5,7-difluoro-1-methyl-1H-benzimidazol-2-yl)isoquinoline], the figures for the 50% inhibitory concentration (IC50) in assay [1] and in assay [2] were 0.346 nM and 490 nM, respectively.

Regarding `Cn1c(-c2cncc3ccccc23)nc2ccc(F)c(F)c21` [Example 267], the results for the IC50 in assay [1] and in assay [2] were 0.151 nM and 206 nM, respectively.

With `Cc1cncc(-c2nc3ccc(F)c(F)c3n2C)c1C` [Example 268, 2-(4,5-dimethylpyridin-3-yl)-6,7-difluoro-1-methyl-1H-benzimidazole], the values for the IC50 in assay [1] and in assay [2] were 0.234 nM and 117 nM, respectively.
